Measured values: patent US11000530B2, “Methods and compositions for the treatment of ophthalmic conditions” (Murray & Poole Enterprises, Limited, priority 2017, dated 2021)

Columns and labels:
[1] = Sedimentation in liquid solutions; format: physicochemical; details: micronized, particulate form
[2] = exposure to oxygen: oxygenation of diclofenac, degradation of ofloxacin into ofloxacin-N-oxide; cited from earlier work

Row | SMILES | time to sedimentation in liquid solutions [1] | compatibility of diclofenac and ofloxacin [2]
1 | CC(=O)OCC(=O)[C@@]1(O)CC[C@H]2[C@@H]3CCC4=CC(=O)C=C[C@]4(C)[C@H]3[C@@H](O)C[C@@]21C [Prednisolone acetate] | less than one minute | –
2 | O=C(O)Cc1ccccc1Nc1c(Cl)cccc1Cl [Diclofenac] | – | generally incompatible
